Columns and labels:
[1] = Non-clinical studies of excretion and elimination (normal rat); format: in vivo
[2] = system: SHPT patients on maintenance hemodialysis; experiment: Phase I/II clinical trial, single administration; format: in vivo, human; settings: for percentage decrease in the serum iPTH concentration: 66 hours after the administration
Description: Targeting SHPT patients on maintenance hemodialysis, pharmacokinetics, pharmacodynamics and safety upon single or repeated intravenous administration of Compound A1 were examined by conducting a double-blind test using a placebo as a control.
Single administration: Based on the clinically effective dose calculated in Reference Example 5, the doses were given at 0.025 mg, 0.05 mg, 0.1 mg, 0.2 mg, 0.4 mg, 0.6 mg, and 0.8 mg (7 steps). On the day of trial drug administration, the trial drug was intravenously administered as slow as possible within 60 seconds 2 to 4 hours following the end of dialysis. Here, the trial drug was administered by diluting a required dose taken from the Compound A1 vial formulation prepared as follows with sterilized water for injection, and filling a syringe with the resultant in accordance with the dose to be administered.
Each item was evaluated according to the predetermined evaluation schedule.
A vial formulation encapsulating 1 mg of Compound A1 in terms of a dehydrate, and sodium chloride, disodium hydrogen phosphate dodecahydrate, and sodium dihydrogen phosphate dihydrate as additives in 10 ml of sterilized water for injection

[3] = Example 4B: residual ratio at 50, 60, 70° C. and Arrhenius estimation at 25° C.; format: physicochemical; settings: for Kobs: estimation at 25° C. (Arrhenius plot); for Residual ratio (%) estimation: estimation at 25° C.
Description: According to Table 13, Compound A1 was dissolved at 2 concentrations in each of the buffer solutions having a pH at each of both ends of Example 4A. Each of these solutions was dispensed into a glass vial and stored at each of 50° C., 60° C., and 70° C. After the storage, a residual ratio was calculated according to a test method described below.
Test method: In the solution after the storage, the residual ratio was analyzed according to a normal method using a liquid chromatography apparatus Prominence (manufactured by Shimadzu Corporation) and an ultraviolet absorptiometer (measurement wavelength: 254 nm, Prominence (manufactured by Shimadzu Corporation)). At this time, SUMIPAX ODS (3 mm×150 mm, […], manufactured by SCAS) was used as a column.
The calculation for obtaining the residual ratio (%) of Compound A1 during each storage period is as follows.
Residual ratio (%) of Compound A1 during each storage period=peak area of Compound A1 in sample solution/peak area of Compound A1 in standard solution×100
Here, “Compound A1 in standard solution” refers to a solution obtained by dissolving Compound A1 in each of the buffer solutions shown in Table 13 so that a concentration was 0.1 mg/mL, and then storing the solution at 5° C. It was clear from the results of Example 1 that the solution of Compound A1 was stable when being stored at 5° C., and thus, the solution was used as the standard solution.
The reaction rate constant at each of the storing temperatures was calculated using the obtained residual ratio. The Arrhenius plot was performed to calculate the reaction rate constant (h^−1) at an arbitrary temperature. As an example, the residual ratio estimation at 25° C. is shown in Table 15 and described in FIG. 1.

Compound: Cc1c(Cl)cc(S(=O)(=O)[O-])cc1NC(=O)NC[C@H](N)C(=O)O.[Na+] [Compound A1, sodium 3-{[(2S)-2-amino-2-carboxyethyl]carbamoylamino}-5-chloro-4-methylbenzenesulfonate]
- elimination from the plasma ([1]; intravenously administered to a normal rat): rapidly eliminated
- main route of excretion ([1]; non-clinical studies): renal excretion
- percentage decrease in the serum iPTH concentration ([2]; 0.025 mg dose group): 27%
- percentage decrease in the serum iPTH concentration ([2]; 0.05 mg dose group): 48%
- percentage decrease in the serum iPTH concentration ([2]; 0.1 mg dose group): 44%
- percentage decrease in the serum iPTH concentration ([2]; 0.2 mg dose group): 57%
- percentage decrease in the serum iPTH concentration ([2]; 0.4 mg dose group): 78%
- percentage decrease in the serum iPTH concentration ([2]; 0.6 mg dose group): 69%
- percentage decrease in the serum iPTH concentration ([2]; 0.8 mg dose group): 66%
- time the serum iPTH lowering effect continued after the administration ([2]; single administration, just before the dialysis): up to 66 hours
- vomiting ([2]; single administration, observed in the 0.4 mg and higher dose groups): non-severe and mild
- nausea ([2]; single administration, observed in the 0.6 mg and higher dose groups): non-severe and mild
- Cmax and AUC in plasma ([2]; single i.v. 0.025 to 0.8 mg, relation to dose): increased with the increase in the given dose
- Kobs ([3]; pH 1.1, 0.1 mg/mL): 3.01e-06 h⁻¹
- Kobs ([3]; pH 1.1, 10 mg/mL): 5.55e-06 h⁻¹
- Kobs ([3]; pH 7.0, 0.1 mg/mL): 3.1e-06 h⁻¹
- Kobs ([3]; pH 7.0, 10 mg/mL): 5.73e-06 h⁻¹
- Residual ratio (%) estimation ([3]; pH 1.1, 0.1 mg/mL, 3M): 99.4%
- Residual ratio (%) estimation ([3]; pH 1.1, 0.1 mg/mL, 6M): 98.7%
- Residual ratio (%) estimation ([3]; pH 1.1, 0.1 mg/mL, 12M): 97.4%
- Residual ratio (%) estimation ([3]; pH 1.1, 10 mg/mL, 3M): 98.8%
- Residual ratio (%) estimation ([3]; pH 1.1, 10 mg/mL, 6M): 97.6%
- Residual ratio (%) estimation ([3]; pH 1.1, 10 mg/mL, 12M): 95.3%
- Residual ratio (%) estimation ([3]; pH 7.0, 0.1 mg/mL, 3M): 99.3%
- Residual ratio (%) estimation ([3]; pH 7.0, 0.1 mg/mL, 6M): 98.7%
- Residual ratio (%) estimation ([3]; pH 7.0, 0.1 mg/mL, 12M): 97.4%
- Residual ratio (%) estimation ([3]; pH 7.0, 10 mg/mL, 3M): 98.8%
- Residual ratio (%) estimation ([3]; pH 7.0, 10 mg/mL, 6M): 97.6%
- Residual ratio (%) estimation ([3]; pH 7.0, 10 mg/mL, 12M): 95.2%
- storage stability ([3]; formulation with pH of 1.1 and 7.0, 25° C., over 12 months (estimation)): excellent storage stability
- Residual ratio (%) ([3]; pH 1.1, 0.1 mg/mL, 50° C., 23 hours): 98.9%
- Residual ratio (%) ([3]; pH 1.1, 0.1 mg/mL, 50° C., 141 hours): 96.9%
- Residual ratio (%) ([3]; pH 1.1, 0.1 mg/mL, 50° C., 570 hours): 92.3%
- Residual ratio (%) ([3]; pH 1.1, 0.1 mg/mL, 60° C., 23 hours): 97.8%
- Residual ratio (%) ([3]; pH 1.1, 0.1 mg/mL, 60° C., 141 hours): 92.0%
- Residual ratio (%) ([3]; pH 1.1, 0.1 mg/mL, 60° C., 570 hours): 76.7%
- Residual ratio (%) ([3]; pH 1.1, 0.1 mg/mL, 70° C., 23 hours): 94.5%
- Residual ratio (%) ([3]; pH 1.1, 0.1 mg/mL, 70° C., 141 hours): 76.8%
- Residual ratio (%) ([3]; pH 1.1, 0.1 mg/mL, 70° C., 570 hours): 35.5%
- Residual ratio (%) ([3]; pH 1.1, 10 mg/mL, 50° C., 23 hours): 96.2%
- Residual ratio (%) ([3]; pH 1.1, 10 mg/mL, 50° C., 141 hours): 96.4%
- Residual ratio (%) ([3]; pH 1.1, 10 mg/mL, 50° C., 570 hours): 89.5%
- Residual ratio (%) ([3]; pH 1.1, 10 mg/mL, 60° C., 23 hours): 96.4%
- Residual ratio (%) ([3]; pH 1.1, 10 mg/mL, 60° C., 141 hours): 95.6%
- Residual ratio (%) ([3]; pH 1.1, 10 mg/mL, 60° C., 570 hours): 73.4%
- Residual ratio (%) ([3]; pH 1.1, 10 mg/mL, 70° C., 23 hours): 92.5%
- Residual ratio (%) ([3]; pH 1.1, 10 mg/mL, 70° C., 141 hours): 84.2%
- Residual ratio (%) ([3]; pH 1.1, 10 mg/mL, 70° C., 570 hours): 36.5%
- Residual ratio (%) ([3]; pH 7.0, 0.1 mg/mL, 50° C., 23 hours): 99.6%
- Residual ratio (%) ([3]; pH 7.0, 0.1 mg/mL, 50° C., 141 hours): 97.7%
- Residual ratio (%) ([3]; pH 7.0, 0.1 mg/mL, 50° C., 570 hours): 90.9%
- Residual ratio (%) ([3]; pH 7.0, 0.1 mg/mL, 60° C., 23 hours): 98.2%
- Residual ratio (%) ([3]; pH 7.0, 0.1 mg/mL, 60° C., 141 hours): 89.2%
- Residual ratio (%) ([3]; pH 7.0, 0.1 mg/mL, 60° C., 570 hours): 63.9%
- Residual ratio (%) ([3]; pH 7.0, 0.1 mg/mL, 70° C., 23 hours): 93.8%
- Residual ratio (%) ([3]; pH 7.0, 0.1 mg/mL, 70° C., 141 hours): 68.0%
- Residual ratio (%) ([3]; pH 7.0, 0.1 mg/mL, 70° C., 570 hours): 21.1%
- Residual ratio (%) ([3]; pH 7.0, 10 mg/mL, 50° C., 23 hours): 100.0%
- Residual ratio (%) ([3]; pH 7.0, 10 mg/mL, 50° C., 141 hours): 98.0%
- Residual ratio (%) ([3]; pH 7.0, 10 mg/mL, 50° C., 570 hours): 89.0%
- Residual ratio (%) ([3]; pH 7.0, 10 mg/mL, 60° C., 23 hours): 97.2%
- Residual ratio (%) ([3]; pH 7.0, 10 mg/mL, 60° C., 141 hours): 86.3%
- Residual ratio (%) ([3]; pH 7.0, 10 mg/mL, 60° C., 570 hours): 61.0%
- Residual ratio (%) ([3]; pH 7.0, 10 mg/mL, 70° C., 23 hours): 91.7%
- Residual ratio (%) ([3]; pH 7.0, 10 mg/mL, 70° C., 141 hours): 64.4%
- Residual ratio (%) ([3]; pH 7.0, 10 mg/mL, 70° C., 570 hours): 22.2%

Reference: patent US20220142958A1, “MEDICINAL COMPOSITION HAVING EXCELLENT STABILITY” (EA Pharma Co., Ltd., priority 2019, published 2022)
